Measurements taken from publication PMC8973347, “Discovery of novel sulphonamide hybrids that inhibit LSD1 against bladder cancer cells” (Journal of Enzyme Inhibition and Medicinal Chemistry, 2022).
Like-named read-outs stand apart in the source and are kept apart here.

How the values were obtained:
[1] = target: T1, MAO-A (Homo sapiens, UniProt P21397); test: MAO-A/B biochemical kit, MAO-A
T1 construct: purchased Promega
T1 sequence (P21397 1-527): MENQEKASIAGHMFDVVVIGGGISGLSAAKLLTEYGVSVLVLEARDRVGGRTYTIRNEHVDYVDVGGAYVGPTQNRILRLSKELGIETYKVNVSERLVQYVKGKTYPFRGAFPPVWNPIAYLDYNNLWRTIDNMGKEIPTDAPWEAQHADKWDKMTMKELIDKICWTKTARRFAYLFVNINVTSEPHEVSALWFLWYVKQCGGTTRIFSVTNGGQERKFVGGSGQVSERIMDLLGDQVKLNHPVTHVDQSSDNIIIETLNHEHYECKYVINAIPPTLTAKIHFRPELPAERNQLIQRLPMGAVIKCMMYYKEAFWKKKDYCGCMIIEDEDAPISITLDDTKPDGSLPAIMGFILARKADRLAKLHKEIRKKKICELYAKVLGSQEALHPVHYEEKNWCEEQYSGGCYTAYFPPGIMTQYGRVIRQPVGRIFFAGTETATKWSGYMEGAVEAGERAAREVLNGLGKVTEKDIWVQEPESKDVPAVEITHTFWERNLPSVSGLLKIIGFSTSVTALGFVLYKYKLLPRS
Source text: (§1) LSD1 inhibitor screening assay kit was purchased to evaluate for the enzyme inhibition activity of all synthetic compounds (Cayman Chemical, Fort Annapolis, MI). The MAO-A/B biochemical kit was purchased to explore the inhibitory activity against MAO-A and MAO-B (Promega, Madison, WI). […] The signal of each well was read by a GloMax Explorer (Beijing Yuanpinghao Biotechnology Co., Ltd, Beijing, China).

[2] = target: T2, MAO-B (Homo sapiens, UniProt P27338); test: MAO-A/B biochemical kit, MAO-B
T2 construct: purchased Promega
T2 sequence (P27338 1-520): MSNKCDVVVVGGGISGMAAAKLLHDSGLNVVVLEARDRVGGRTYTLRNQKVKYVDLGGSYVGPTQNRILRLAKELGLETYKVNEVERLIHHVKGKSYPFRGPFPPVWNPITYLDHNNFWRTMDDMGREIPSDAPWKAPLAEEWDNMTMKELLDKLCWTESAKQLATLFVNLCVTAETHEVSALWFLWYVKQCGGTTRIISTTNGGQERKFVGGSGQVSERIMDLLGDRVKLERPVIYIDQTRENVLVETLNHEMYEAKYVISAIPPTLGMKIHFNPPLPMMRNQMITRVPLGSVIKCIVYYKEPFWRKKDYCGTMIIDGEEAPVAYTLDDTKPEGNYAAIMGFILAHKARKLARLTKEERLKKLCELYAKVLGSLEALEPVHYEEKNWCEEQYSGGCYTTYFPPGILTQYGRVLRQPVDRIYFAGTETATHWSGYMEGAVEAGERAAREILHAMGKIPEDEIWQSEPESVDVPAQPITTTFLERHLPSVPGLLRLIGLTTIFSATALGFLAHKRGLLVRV
Source text: as §1

[3] = target: LSD1 (Homo sapiens, UniProt O60341); test: LSD1 inhibitor screening assay kit
Source text: as §1

SMILES	IC50 [1] [µM]	IC50 [2] [µM]	IC50 [3] [µM]	melting point [°C]	LSD1 activity loss, hydroxyethyl group replaced with ethyl group ([3]; compound L8 versus L5)	IC50 ([3]; read-out: IC50 (μM) LSD1) [µM]
COc1ccc(S(=O)(=O)Nc2cccc3cccnc23)cc1OC [Compound J1, 3,4-Dimethoxy-N-(quinolin-8-yl)benzenesulphonamide]	> 120	> 120	33.8 ± 2.04			
COc1ccc(S(=O)(=O)Nc2cccc3cccnc23)cc1 [Compound J2, 4-Methoxy-N-(quinolin-8-yl)benzenesulphonamide]	> 120	> 120	45.6 ± 1.12			
CC(C)(C)c1ccc(S(=O)(=O)Nc2cccc3cccnc23)cc1 [Compound J3, 4-(Tert-butyl)-N-(quinolin-8-yl)benzenesulphonamide]	> 120	> 120	61.9 ± 2.46			
O=S(=O)(Nc1cccc2cccnc12)c1ccccc1 [Compound J4, N-(quinolin-8-yl)benzenesulphonamide]	> 120	> 120	82.5 ± 3.38			
Cc1ccc(S(=O)(=O)Nc2cccc3cccnc23)cc1 [Compound J5, 4-Methyl-N-(quinolin-8-yl)benzenesulphonamide]	> 120	> 120	74.5 ± 2.67			
O=S(=O)(Nc1cccc2cccnc12)c1ccc(Br)cc1 [Compound J6, 4-Bromo-N-(quinolin-8-yl)benzenesulphonamide]	> 120	> 120	61.8 ± 5.64	192 to 194		
COc1cc(NS(=O)(=O)c2cccc3cccnc23)cc(OC)c1OC [Compound J7, N-(3,4,5-trimethoxyphenyl)quinoline-8-sulphonamide]	> 120	> 120	11.6 ± 1.92			
COc1cc(N(CCBr)S(=O)(=O)c2cccc3cccnc23)cc(OC)c1OC [Compound K1, N-(2-bromoethyl)-N-(3,4,5-trimethoxyphenyl)quinoline-8-sulphonamide]	> 120	> 120	14.8 ± 2.04	158 to 160		
COc1cc(N(CCSC(=S)N2CCN(CCO)CC2)S(=O)(=O)c2cccc3cccnc23)cc(OC)c1OC [Compound L3, 2-(N-(3,4,5-trimethoxyphenyl)quinoline-8-sulfonamido)ethyl-4–(2-hydroxyethyl)piperazine-1-carbodithioate]	> 120	> 120				1.85 ± 0.07
COc1cc(N(CCCSC(=S)N2CCN(CCO)CC2)S(=O)(=O)c2cccc3cccnc23)cc(OC)c1OC [Compound L4, 3-(N-(3,4,5-trimethoxyphenyl)quinoline-8-sulfonamido)propyl-4–(2-hydroxyethyl)piperazine-1-carbodithioate]	> 120	> 120				0.67 ± 0.1

Second part, led by results:

IC50 [1] [µM]	IC50 [2] [µM]	IC50 [3] [µM]	melting point [°C]	LSD1 activity loss, hydroxyethyl group replaced with ethyl group ([3]; compound L8 versus L5)	SMILES	IC50 ([3]; read-out: IC50 (μM) LSD1) [µM]
> 120	> 120	9.63 ± 1.26			COc1cc(N(CCCBr)S(=O)(=O)c2cccc3cccnc23)cc(OC)c1OC [Compound K2, N-(3-bromopropyl)-N-(3,4,5-trimethoxyphenyl)quinoline-8-sulphonamide]	
> 120	> 120	6.32 ± 0.77	103 to 104		COc1cc(N(CCCCBr)S(=O)(=O)c2cccc3cccnc23)cc(OC)c1OC [Compound K3, N-(4-bromobutyl)-N-(3,4,5-trimethoxyphenyl)quinoline-8-sulphonamide]	
> 120	> 120			over 80 fold	CCN1CCN(C(=S)SCCCCN(c2cc(OC)c(OC)c(OC)c2)S(=O)(=O)c2cccc3cccnc23)CC1 [Compound L5, 4-(N-(3,4,5-trimethoxyphenyl)quinoline-8-sulfonamido)butyl-4-ethylpiperazine-1-carbodithioate]	4.92 ± 0.13
> 120	> 120				COc1cc(N(CCCCSC(=S)N2CCN(C)CC2)S(=O)(=O)c2cccc3cccnc23)cc(OC)c1OC [Compound L7, 4-(N-(3,4,5-trimethoxyphenyl)quinoline-8-sulfonamido)butyl-4-methylpiperazine-1-carbodithioate]	0.73 ± 0.08
> 120					N[C@H]1CC[C@H](N[C@@H]2C[C@H]2c2ccccc2)CC1 [ORY-1001, reference compound]	
